Data taken from patent US8992982B2, “Formulation of indomethacin” (Iceutica Pty Ltd., priority 2009, dated 2015).

Tested on: pain after surgical removal of impacted third molars
Assay: Phase 2 dental pain study: VAS pain intensity (VAS score, VASPID, VASSPID)
Assay type: in vivo, human
Design: VASPID, Median / VASPID, Mean / VAS pain intensity score, Median / VASSPID-8, Median: scale not given here
Method: On Day 1, eligible subjects underwent extraction of 2 or more third molars, at least 1 of which had to be a fully or partially bone-impacted mandibular molar. If only 2 molars were removed, then they had to be ipsilateral.
Subjects assessed their baseline pain intensity (VAS) before receiving study drug (predose, Time 0) and their pain intensity (VAS) and pain relief (5-point categorical scale) at 15, 30, and 45 minutes and 1, 1.5, 2, 3, 4, 5, 6, 7, and 8 hours after Time 0 and immediately before the first dose of rescue medication. The 2-stopwatch method was used to record the time to perceptible and time to meaningful pain relief, respectively. Acetaminophen (1000 mg) was permitted as the initial rescue medication. Subjects were encouraged to wait at least 60 minutes after receiving study drug before taking rescue medication. […] Other restrictions included the following: no alcohol use from 24 hours before surgery until discharge on Day 1; nothing by mouth (NPO) from midnight before surgery until 1 hour after surgery; clear liquids only from 1 hour after surgery until 1 hour after dosing; and advancement of diet 1 hour after dosing according to standard practice.
The secondary efficacy endpoints were as follows: • TOTPAR over 0 to 4 hours (TOTPAR-4) after Time 0 • Visual Analogue Scale (VAS) pain intensity difference (VASPID) at each scheduled time point after Time 0 • Time to onset of analgesia (measured as time to perceptible pain relief confirmed by meaningful pain relief) • VAS pain intensity score at each scheduled time point • VAS summed pain intensity difference (VASSPID) over 0 to 4 hours (VASSPID-4) and over 0 to 8 hours (VASSPID-8) after Time 0 • Pain relief score at each scheduled time point after Time 0 • Peak pain relief • Time to peak pain relief • Time to first perceptible pain relief • Time to meaningful pain relief • Proportion of subjects using rescue medication • Time to first use of rescue medication (duration of analgesia) • Patient's global evaluation of study drug Safety:
For continuous secondary endpoints such as pain intensity score, VASPID at each scheduled time point, peak pain intensity, TOTPAR-4, VASSPID-4, and VASSPID-8, descriptive statistics (e.g., mean, standard error, median, minimum, and maximum) were provided for each treatment regimen. Nominal P values from 2-sample tests comparing the placebo group with other treatment groups were provided, but no formal statistical inferences were drawn on the basis of these tests.
For pain intensity, missing observations were imputed using a baseline-observation-carried-forward (BOCF) approach for subjects who withdrew from the study due to lack of efficacy or an AE/intolerance to study drug. The BOCF imputation was applied in place of all scheduled assessments after the time of early termination due to lack of efficacy or an AE/intolerance to study drug using the baseline observation taken before Time 0.
For subjects who withdrew from the study for reasons other than lack of efficacy or an AE/intolerance to study drug, missing observations for pain intensity and pain relief were imputed using a last-observation-carried-forward (LOCF) approach. The LOCF imputation was applied in place of all scheduled assessments after the time of early termination for reasons other than lack of efficacy or an AE/intolerance to study drug.
For subjects who took any dose of rescue medication, subsequent measures after the first dose of rescue mediation were disregarded. Instead, all scheduled assessments after the first dose of rescue medication were imputed using BOCF and the baseline observation taken before Time 0. (Baseline value for pain relief was 0.)

[1] = 15 minutes after Time 0, ITT, 100-mm VAS

## Cc1ccc(-c2cc(C(F)(F)F)nn2-c2ccc(S(N)(=O)=O)cc2)cc1 [Celecoxib]
0 to 4 hours after Time 0, ITT
  VASSPID-4, Mean (SD): 127.971 (99.1934)
  VASSPID-4, Median: 140.250
0 to 8 hours after Time 0, ITT
  VASSPID-8, Mean (SD): 284.265 (229.4447)
  VASSPID-8, Median: 346.500
15 minutes after Time 0, ITT
  VAS pain intensity score, Median: 71.00
  VASPID, Median: 1.00
[1]
  VAS pain intensity score, Mean: 70.55
  VASPID, Mean: 3.35
30 minutes after Time 0, ITT
  VAS pain intensity score, Mean: 67.25
  VAS pain intensity score, Median: 66.00
  VASPID, Mean: 6.65
  VASPID, Median: 3.00
45 minutes after Time 0, ITT
  VAS pain intensity score, Mean: 57.47
  VAS pain intensity score, Median: 61.00
  VASPID, Mean: 16.43
  VASPID, Median: 10.00
1 hour after Time 0, ITT
  VAS pain intensity score, Mean: 49.08
  VAS pain intensity score, Median: 50.00
  VASPID, Mean: 24.82
  VASPID, Median: 17.00
2 hours after Time 0, ITT
  VAS pain intensity score, Mean: 36.65
  VAS pain intensity score, Median: 36.00
  VASPID, Mean: 37.25
  VASPID, Median: 32.00
3 hours after Time 0, ITT
  VAS pain intensity score, Mean: 32.29
  VAS pain intensity score, Median: 28.00
  VASPID, Mean: 41.61
  VASPID, Median: 50.00
4 hours after Time 0, ITT
  VAS pain intensity score, Mean: 33.94
  VAS pain intensity score, Median: 25.00
  VASPID, Mean: 39.96
  VASPID, Median: 46.00
5 hours after Time 0, ITT
  VAS pain intensity score, Mean: 33.69
  VAS pain intensity score, Median: 22.00
  VASPID, Mean: 40.22
  VASPID, Median: 50.00
6 hours after Time 0, ITT
  VAS pain intensity score, Mean: 35.06
  VAS pain intensity score, Median: 20.00
  VASPID, Mean: 38.84
  VASPID, Median: 50.00
7 hours after Time 0, ITT
  VAS pain intensity score, Mean: 35.55
  VAS pain intensity score, Median: 21.00
  VASPID, Mean: 38.35
  VASPID, Median: 44.00
8 hours after Time 0, ITT
  VAS pain intensity score, Mean: 35.02
  VAS pain intensity score, Median: 22.0
  VASPID, Mean: 38.88
  VASPID, Median: 49.00
[…] after Time 0, ITT
  VAS pain intensity score, Mean: 43.98
  VAS pain intensity score, Median: 48.00
  VASPID, Mean: 29.92
  VASPID, Median: 26.00
Onward after Time 0
  Time point from which mean VASPID was statistically significantly greater and mean VAS pain intensity less than placebo: ≥ 30 min
